Source: patent publication US20020002170A1, “Piperidine and piperazine derivatives as inhibitors of the abeta fibril formation” (priority 1999, published 2002)
Where a name gives a salt, the structure may show the parent alone.

Row | melting point | SMILES
1 | 184 to 187 °C (dec.) | COc1ccc(C2(c3ccc(OC)cc3)CCN(CC[C@@H]3C=C4c5cccc6[nH]cc(c56)C[C@H]4N(C)C3)CC2)cc1
2 | 154 to 157 °C | CN1C[C@H](CCN2CCC(O)(c3ccc(Cl)cc3)CC2)C=C2c3cccc4[nH]cc(c34)C[C@H]21
3 | 165 to 169 °C | CN1C[C@H](CCN2CCN(C(c3ccccc3)c3ccccc3)CC2)C=C2c3cccc4[nH]cc(c34)C[C@H]21
4 | > 200 °C (dec.) | CN1C[C@H](CN2CCN(C(c3ccccc3)c3ccccc3)CC2)C=C2c3cccc4[nH]cc(c34)C[C@H]21
5 | 101 to 107 °C | CN1C[C@H](CN2CCC(O)(c3ccc(Cl)cc3)CC2)C=C2c3cccc4c3c(cn4C)C[C@H]21
6 | 172 to 175 °C | CN1C[C@H](CN2CCN(C(c3ccccc3)c3ccccc3)CC2)C=C2c3cccc4c3c(cn4C)C[C@H]21
7 | > 204 °C (dec.) | COc1ccc(C2(c3ccc(OC)cc3)CCN(C[C@@H]3C=C4c5cccc6[nH]c(Cl)c(c56)C[C@H]4N(C)C3)CC2)cc1
8 | > 192 °C (dec.) | CN1C[C@H](CN2CCC(O)(c3ccc(Cl)cc3)CC2)C=C2c3cccc4[nH]c(Cl)c(c34)C[C@H]21
9 | 208 °C (dec.) | CN1C[C@H](CN2CCN(C(c3ccccc3)c3ccccc3)CC2)C=C2c3cccc4[nH]c(Cl)c(c34)C[C@H]21
10 | 230 to 233 °C | CN1C[C@H](CN2CCN(C(c3ccccc3)c3ccccc3)CC2)C[C@@H]2c3cccc4[nH]cc(c34)C[C@H]21
11 | 250 °C (dec.) | CN1C[C@H](CN2CCN(C(c3ccccc3)c3ccccc3)CC2)C[C@@H]2c3cccc4[nH]c(Cl)c(c34)C[C@H]21
12 | 255 °C (dec.) | CN1C[C@H](CN2CCN(C(c3ccccc3)c3ccccc3)CC2)C[C@@H]2c3cccc4[nH]c(Br)c(c34)C[C@H]21
13 | 203 to 205 °C | CCN1C[C@H](CN2CCN(C(c3ccccc3)c3ccccc3)CC2)C[C@@H]2c3cccc4[nH]cc(c34)C[C@H]21
14 | 206 to 212 °C | CN1C[C@H](CCN2CCN(C(c3ccccc3)c3ccccc3)CC2)C[C@@H]2c3cccc4[nH]cc(c34)C[C@H]21
15 | 215 to 222 °C | COc1ccc(C2(c3ccc(OC)cc3)CCN(C[C@H]3CN(C)[C@@H]4Cc5c[nH]c6cccc(c56)[C@@]4(OC)C3)CC2)cc1
16 | 144 to 148 °C | CO[C@]12C[C@@H](CN3CCC(O)(c4ccc(Cl)cc4)CC3)CN(C)[C@@H]1Cc1c[nH]c3cccc2c13
17 | 135 to 140 °C | CO[C@]12C[C@@H](CN3CCC(O)(c4cccc(C(F)(F)F)c4)CC3)CN(C)[C@@H]1Cc1c[nH]c3cccc2c13
18 | 143 to 146 °C | CO[C@]12C[C@@H](CN3CCC(O)(c4ccc(Cl)c(C(F)(F)F)c4)CC3)CN(C)[C@@H]1Cc1c[nH]c3cccc2c13
19 | 129 to 136 °C | COc1ccc(C2(c3ccc(OC)cc3)CCN(CC[C@H]3CN(C)[C@@H]4Cc5c[nH]c6cccc(c56)[C@@]4(OC)C3)CC2)cc1
20 | 133 to 139 °C | CO[C@]12C[C@@H](CCN3CCC(O)(c4ccc(Cl)cc4)CC3)CN(C)[C@@H]1Cc1c[nH]c3cccc2c13
21 | 130 °C | CO[C@]12C[C@@H](CCN3CCN(C(c4ccccc4)c4ccccc4)CC3)CN(C)[C@@H]1Cc1c[nH]c3cccc2c13
22 | 202 to 204 °C | COc1cccc2c1C[C@H]1C[C@@H](CN3CCC(O)(c4ccc(Cl)cc4)CC3)CN(C)[C@@H]1C2
23 | 216 to 219 °C | COc1ccc(C2(c3ccc(OC)cc3)CCN(C[C@@H]3C[C@@H]4Cc5c(cccc5OC)C[C@H]4N(C)C3)CC2)cc1 (as salt: fumarate)
24 | 138 to 142 °C | COc1ccc(C2(c3ccc(OC)cc3)CCN(CC[C@@H]3C[C@@H]4Cc5c(cccc5OC)C[C@H]4N(C)C3)CC2)cc1 (as salt: succinate)
25 | 212 to 215 °C | COc1cccc2c1C[C@H]1C[C@@H](CCN3CCC(O)(c4ccc(Cl)cc4)CC3)CN(C)[C@@H]1C2 (as salt: succinate)
26 | 167 to 172 °C | COc1ccc(C2(c3ccc(OC)cc3)CCN(C[C@H]3CN(C)[C@@H]4Cc5c(Br)[nH]c6cccc(c56)[C@@]4(OC)C3)CC2)cc1 (as salt: tartrate)
27 | 140 to 148 °C | COc1cccc2c1C[C@H]1C[C@@H](CCN3CCN(C(c4ccccc4)c4ccccc4)CC3)CN(C)[C@@H]1C2 [Example 5, [3S,4aR,10aR]-3-[2-(4-Benzhydryl-piperazin-1-yl)-ethyl]-6-methoxy-1-methyl-1,2,3,4,4a,5,10,10a-octahydro-benzo[g]quinoline]
28 | 278 to 280 °C | COc1cccc2c1C[C@H]1C[C@@H](CN3CCN(C(c4ccccc4)c4ccccc4)CC3)CN(C)[C@@H]1C2 [Example 10, [3S,4aR,10aR]-3-(4-Benzhydryl-piperazin-1-ylmethyl)-6-methoxy-1-methyl-1,2,3,4,4a,5,10,10a-octahydro-benzo[g]quinoline]
29 | 219 to 222 °C | COc1cccc2c1C[C@H]1C[C@@H](CN3CCC(NC(=O)C(c4ccccc4)c4ccccc4)CC3)CN(C)[C@@H]1C2 [Example 12, N-[1-((3S,4aR,10aR)-6-Methoxy-1-methyl-1,2,3,4,4a,5,10,10a-octahydro-benzo[g]quinolin-3-ylmethyl)-piperidin-4-yl]-2,2-diphenyl-acetamide]
